# Test system: C. glabrata
# Test: Checkerboard FIC assay in combination with fluconazole (MIC alone and in combination, FICI)
# Type: cell-based, Candida glabrata
# Conditions: C. glabrata; FICI calculated using a fluconazole MIC of 16 μg/mL
# Experimental: The ability of the compounds to synergize with azoles against C. glabrata was evaluated by the checkerboard assay, a common laboratory method used to evaluate synergy, antagonism, and indifference using fractional inhibitory concentrations (FICs) and FIC indices (FICI).
# The test compounds were supplied as a powder and dissolved in dimethylsulfoxide (DMSO) on the day of assay. Stock solutions were prepared at 640 ug/mL. Fluconazole was dissolved in deionized water to a stock concentration of 320 ug/mL. All test articles were in solution under these conditions.
# (§1) The test organisms and reference isolates were streaked for isolation on Sabouraud agar medium (yeasts) or potato dextrose agar (fungi). Colonies were picked by swab from the medium and resuspended in the appropriate broth containing cryoprotectant. The suspensions were aliquoted into cryogenic vials and maintained at −80° C.
# (§2) Prior to testing, the yeast isolates were streaked from the frozen vials onto Sabouraud dextrose agar. The plates were incubated overnight at 35° C. The fungal isolate was grown on potato dextrose agar slants and was incubated for 7-10 days at room temperature.
# (§3) Both yeast and fungal isolates were tested in RPMI medium buffered with 0.165 M MOPS (3-(N-morpholino)propanesulfonic acid). The pH of the medium was adjusted to 7.0 with 1 N NaOH. The medium was sterile filtered using a 0.2 um PES (polyethersulfone) filter and stored at 4° C. until used.
# FIC values were determined using a broth microdilution method (CLSI; 1, 3). To prepare the test plates, automated liquid handlers (Multidrop 384, Labsystems, Helsinki, Finland; Biomek 2000 and Biomek FX, Beckman Coulter, Fullerton Calif.) were used to conduct serial dilutions and liquid transfers.
# The wells of standard 96-well microdilution plates (Costar 3795) were filled with 150 uL of DMSO in columns 2-12. Three hundred microliters of each test compound was added to each well in Column 1 of the plates. The Biomek 2000 was used to make eleven 2-fold serial dilutions in each of these “test compound mother” plates. The wells of the “fluconazole mother plates” were filled with 150 uL of sterile water in rows B-H. Row A of these plates was filled with 300 uL of the fluconazole stock solution. Serial 2-fold dilutions were then prepared from top to bottom by hand, using a multichannel pipette in rows B-G. The “daughter plates” were loaded with 180 uL of RPMI using the Multidrop 384. The Biomek FX was used to transfer 5 uL of compound solution from each well of a fluconazole mother plate to the corresponding well in all of the daughter plates in a single step. Then the Biomek FX was used to transfer 5 uL of compound solution from each well of a test compound mother plate to the corresponding well of the corresponding test compound daughter plate (already containing fluconazole at the appropriate concentrations) in a single step. Row H and Column 12 each contained serial dilutions of the test agent and fluconazole alone, respectively, for determination of the MIC.
# Standardized inoculum of each organism was prepared per CLSI methods (CLSI; 1, 3). For yeast isolates, colonies were picked from the primary plate and a suspension was prepared in 0.85% saline to equal a 0.5 McFarland turbidity standard. For the fungal isolate, 1 mL of 0.85% saline was dispensed onto a potato dextrose agar slant onto which the isolate had been inoculated 7-10 days previously. Using a swab, a suspension of the fungus was made. After a short time to allow the heavy particles to settle out, a small quantity of the supernatant was dispensed into 0.85% saline and the suspension was adjusted to equal a 0.5 McFarland turbidity standard. Both yeast and fungal isolates were diluted 1:100 in RPMI and then transferred to compartments of sterile reservoirs divided by length (Beckman Coulter). The Biomek 2000 was used to inoculate the plates. […]
SMILES,FICI of combination resulting in fluconazole MIC of: 2 ug/mL,FICI of combination resulting in fluconazole MIC of: 4 ug/mL,FICI of combination resulting in fluconazole MIC of: 8 ug/mL
"O=C(Cc1ccc(CCCCc2ccc(F)cc2F)cc1)NO [Example 3, 2-(4-(4-(2,4-difluorophenyl)butyl)phenyl)-N-hydroxyacetamide]",0.563,0.625,0.490

# Same assay, conditions: C. glabrata; FICI using a fluconazole MIC of 128 μg/mL
SMILES,FICI of combination resulting in fluconazole MIC of: 2 ug/mL (value in parenthesis),FICI of combination resulting in fluconazole MIC of: 4 ug/mL (value in parenthesis),FICI of combination resulting in fluconazole MIC of: 8 ug/mL (value in parenthesis)
"O=C(Cc1ccc(CCCCc2ccc(F)cc2F)cc1)NO [Example 3, 2-(4-(4-(2,4-difluorophenyl)butyl)phenyl)-N-hydroxyacetamide]",0.516,0.531,0.303

# Same assay, conditions: Nakaseomyces glabratus; MIC of the example compound alone against C. glabrata in the checkerboard assay, approximately 48 hr; read-out: Methylgene MIC
row,SMILES,MIC
1,"O=C(Cc1ccc(CCCCc2ccc(F)cc2F)cc1)NO [Example 3, 2-(4-(4-(2,4-difluorophenyl)butyl)phenyl)-N-hydroxyacetamide]",0.5 µg/mL

# Same assay, conditions: Nakaseomyces glabratus; test compound alone, C. glabrata, approx. 48 hr at 35° C.; read-out: Compound MIC
row,SMILES,MIC
1,"O=C(Cc1ccc(CCCCc2ccc(F)cc2F)cc1)NO [Example 3, 2-(4-(4-(2,4-difluorophenyl)butyl)phenyl)-N-hydroxyacetamide]",0.5 µg/mL

# Same assay, conditions: concentration in combination as multiple of the compound's MIC alone; fluconazole MIC 2 ug/mL
row,SMILES,Multiple of compound MIC to synergize fluconazole MIC to 2 ug/mL
1,"O=C(Cc1ccc(CCCCc2ccc(F)cc2F)cc1)NO [Example 3, 2-(4-(4-(2,4-difluorophenyl)butyl)phenyl)-N-hydroxyacetamide]",(½x)

# Same assay, conditions: concentration in combination as multiple of the compound's MIC alone; fluconazole MIC 4 ug/mL
row,SMILES,Multiple of compound MIC to synergize fluconazole MIC to 4 ug/mL
1,"O=C(Cc1ccc(CCCCc2ccc(F)cc2F)cc1)NO [Example 3, 2-(4-(4-(2,4-difluorophenyl)butyl)phenyl)-N-hydroxyacetamide]",(½x)

# Same assay, conditions: concentration in combination as multiple of the compound's MIC alone; fluconazole MIC 8 ug/mL
row,SMILES,Multiple of compound MIC to synergize fluconazole MIC to 8 ug/mL
1,"O=C(Cc1ccc(CCCCc2ccc(F)cc2F)cc1)NO [Example 3, 2-(4-(4-(2,4-difluorophenyl)butyl)phenyl)-N-hydroxyacetamide]",(¼x)

# Same assay, conditions: in combination with fluconazole, C. glabrata; fluconazole MIC lowered to 2 ug/mL
row,SMILES,Concentration of Methylgene compound to synergize fluconazole MIC to 2 ug/mL
1,"O=C(Cc1ccc(CCCCc2ccc(F)cc2F)cc1)NO [Example 3, 2-(4-(4-(2,4-difluorophenyl)butyl)phenyl)-N-hydroxyacetamide]",0.25 µg/mL

# Same assay, conditions: in combination with fluconazole, C. glabrata; fluconazole MIC lowered to 4 ug/mL
row,SMILES,Concentration of Methylgene compound to synergize fluconazole MIC to 4 ug/mL
1,"O=C(Cc1ccc(CCCCc2ccc(F)cc2F)cc1)NO [Example 3, 2-(4-(4-(2,4-difluorophenyl)butyl)phenyl)-N-hydroxyacetamide]",0.25 µg/mL

# Same assay, conditions: in combination with fluconazole, C. glabrata; fluconazole MIC lowered to 8 ug/mL
row,SMILES,Concentration of Methylgene compound to synergize fluconazole MIC to 8 ug/mL
1,"O=C(Cc1ccc(CCCCc2ccc(F)cc2F)cc1)NO [Example 3, 2-(4-(4-(2,4-difluorophenyl)butyl)phenyl)-N-hydroxyacetamide]",0.12 µg/mL

# Test system: Candida glabrata
# Test: Minimal Inhibitory Concentration (MIC) assay, broth microdilution per CLSI;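 further: two read times 24 hr and 48 hr of incubation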
# Type: cell-based
# Conditions: Nakaseomyces glabratus; 24 hr reading (first value of cell 24 hr/48 hr); read-out: Minimum Inhibitory Concentrations against Yeast Isolates, Candida glabrata
# Experimental: (§4) The in vitro activities of the inventive compounds (compound(s) herein) against fungi and/or yeasts were determined with isolates Candida albicans, Candida glabrata and Candida parapsilosis. The comparator compounds included fluconazole, caspofungin and amphotericin B.
# (§5) The compounds were supplied as a powder, and were dissolved in dimethylsulfoxide (DMSO) the day of assay. Stock solutions were prepared at 10 mg/mL and diluted to a starting stock concentration of 2.56 mg/mL. Amphotericin B was dissolved in DMSO to a stock concentration of 2.56 mg/mL. Fluconazole was dissolved in deionized water to a stock concentration of 2.56 mg/mL. Caspofungin was received as a stock solution of 3.2 mg/mL in DMSO and was diluted to a starting stock concentration of 2.56 mg/mL.
# as §1, §2, §3
# (§6) The MIC assay method followed the procedure described by the Clinical and Laboratory Standards Institute (CLSI; 1, 2, 3) and employed automated liquid handlers to conduct serial dilutions and liquid transfers. Automated liquid handlers included the Multidrop 384 (Labsystems, Helsinki, Finland), Biomek 2000 and Biomek FX (Beckman Coulter, Fullerton Calif.). The wells in columns 2-12 in standard 96-well microdilution plates (Costar 3795) were filled with 150 ul of 100% DMSO. These would become the ‘mother plates’ from which ‘daughter’ or test plates would be prepared. The compounds (300 uL at 40× the desired top concentration in the test plates) were dispensed into the appropriate well in Column 1 of the mother plates. The Biomek 2000 was used to make serial 1:1 dilutions through Column 11 in the “mother plate”. The wells of Column 12 contained no compounds and were the organism growth control wells.
# (§7) The daughter plates were loaded with 185 uL per well of RPMI described above using the Multidrop 384. The daughter plates were prepared using the Biomek FX which transferred 5 μL of the compound solution from each well of a mother plate to the corresponding well of the daughter plate in a single step.
# (§8) Standardized inoculum of each organism was prepared per CLSI methods. For yeast isolates, colonies were picked from the streak plate and a suspension was prepared in 0.85% saline. For the fungal isolate, 1 mL of 0.85% saline was dispensed onto the potato dextrose agar slant that had been inoculated 7-10 days previously. Using a swab, a suspension of the fungus was made. After a short time to allow the heavy particles to settle out, a small quantity of the supernatant was dispensed into 0.85% saline and the suspension adjusted to equal a 0.5 McFarland turbidity standard. Both yeast and fungal isolates were diluted 1:100 in RPMI and then transferred to compartments of sterile reservoirs divided by length (Beckman Coulter). The Biomek 2000 was used to inoculate the plates. Daughter plates were placed on the Biomek 2000 work surface reversed so that inoculation took place from low to high compound concentration. The Biomek 2000 delivered 10 μL of standardized inoculum into each well. Thus, the wells of the daughter plates ultimately contained 185 uL of RPMI, 5 uL of the compound solution, and 10 uL of inoculum. […]
row,SMILES,MIC
1,"O=C(Cc1ccc(CCCCc2ccc(F)cc2F)cc1)NO [Example 3, 2-(4-(4-(2,4-difluorophenyl)butyl)phenyl)-N-hydroxyacetamide]",0.5 µg/mL

# Same assay, conditions: Nakaseomyces glabratus; 48 hr reading (second value of cell 24 hr/48 hr); read-out: Minimum Inhibitory Concentrations against Yeast Isolates, Candida glabrata
row,SMILES,MIC
1,"O=C(Cc1ccc(CCCCc2ccc(F)cc2F)cc1)NO [Example 3, 2-(4-(4-(2,4-difluorophenyl)butyl)phenyl)-N-hydroxyacetamide]",0.5 µg/mL

# Test system: Candida albicans
# Test: as above
# Type: cell-based
# Conditions: Candida albicans; 24 hr reading (first value of cell 24 hr/48 hr); read-out: Minimum Inhibitory Concentrations against Yeast Isolates, Candida albicans
# Experimental: as §4, §5, §1, §2, §3, §6, §7, §8
row,SMILES,MIC
1,"O=C(Cc1ccc(CCCCc2ccc(F)cc2F)cc1)NO [Example 3, 2-(4-(4-(2,4-difluorophenyl)butyl)phenyl)-N-hydroxyacetamide]",0.5 µg/mL

# Same assay, conditions: Candida albicans; 48 hr reading (second value of cell 24 hr/48 hr); read-out: Minimum Inhibitory Concentrations against Yeast Isolates, Candida albicans
row,SMILES,MIC
1,"O=C(Cc1ccc(CCCCc2ccc(F)cc2F)cc1)NO [Example 3, 2-(4-(4-(2,4-difluorophenyl)butyl)phenyl)-N-hydroxyacetamide]",0.5 µg/mL

# Test system: Candida parapsilosis
# Test: as above
# Type: cell-based
# Conditions: Lodderomyces parapsilosis; 24 hr reading (first value of cell 24 hr/48 hr); read-out: Minimum Inhibitory Concentrations against Yeast Isolates, Candida parapsilosis
# Experimental: as §4, §5, §1, §2, §3, §6, §7, §8
row,SMILES,MIC
1,"O=C(Cc1ccc(CCCCc2ccc(F)cc2F)cc1)NO [Example 3, 2-(4-(4-(2,4-difluorophenyl)butyl)phenyl)-N-hydroxyacetamide]",0.25 µg/mL

# Same assay, conditions: Lodderomyces parapsilosis; 48 hr reading (second value of cell 24 hr/48 hr); read-out: Minimum Inhibitory Concentrations against Yeast Isolates, Candida parapsilosis
row,SMILES,MIC
1,"O=C(Cc1ccc(CCCCc2ccc(F)cc2F)cc1)NO [Example 3, 2-(4-(4-(2,4-difluorophenyl)butyl)phenyl)-N-hydroxyacetamide]",0.5 µg/mL
